System: 349418-098-R-PDC spheroids, viability, % test/control
Assay: Anticancer human tumor 349418-098-R-PDC patient-derived lung adenocarcinoma cell line growth inhibition [IpAb]
Conditions: spheroids with HUVEC and MSC; for IC50: curve of first compound; for viability, T/C: stronger effect = lower value
Outline: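 Multi-cell spheroids of 60% tumour cells, 25% HUVEC and 15% MSC in ultra-low-attachment U-bottom wells, treated with agents combined with ipatasertib or abemaciclib. Half-log ranges top out near clinical Cmax, or 10 microM when Cmax is unknown.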
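Note: spheroids exposed to compounds for 7 days.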

CC(C)(C)c1cnc(CSc2cnc(NC(=O)C3CCNCC3)s2)o1 + CCN1CCN(Cc2ccc(Nc3ncc(F)c(-c4cc(F)c5nc(C)n(C(C)C)c5c4)n3)nc2)CC1
IC50 (second compound 0.01 µM): 24.1 nM
IC50 (second compound 0.0316 µM): < 9.49 nM
IC50 (second compound 0.1 µM): < 9.49 nM
IC50 (second compound 0.316 µM): < 9.49 nM
IC50 (second compound 1 µM): < 9.49 nM
viability, T/C (second compound 0.01 µM, first compound 0.00949 µM): 69.8%
viability, T/C (second compound 0.01 µM, first compound 0.03 µM): 45.4%
viability, T/C (second compound 0.01 µM, first compound 0.0949 µM): 8.31%
viability, T/C (second compound 0.01 µM, first compound 0.3 µM): 2.5%
viability, T/C (second compound 0.01 µM, first compound 0.949 µM): 2.72%
viability, T/C (second compound 0.01 µM, first compound 3 µM): 2.34%
viability, T/C (second compound 0.0316 µM, first compound 0.00949 µM): 47.7%
viability, T/C (second compound 0.0316 µM, first compound 0.03 µM): 36.2%
viability, T/C (second compound 0.0316 µM, first compound 0.0949 µM): 6.02%
viability, T/C (second compound 0.0316 µM, first compound 0.3 µM): 2.71%
viability, T/C (second compound 0.0316 µM, first compound 0.949 µM): 2.93%
viability, T/C (second compound 0.0316 µM, first compound 3 µM): 2.49%
viability, T/C (second compound 0.1 µM, first compound 0.00949 µM): 24.8%
viability, T/C (second compound 0.1 µM, first compound 0.03 µM): 17.7%
viability, T/C (second compound 0.1 µM, first compound 0.0949 µM): 4.01%
viability, T/C (second compound 0.1 µM, first compound 0.3 µM): 2.44%
viability, T/C (second compound 0.1 µM, first compound 0.949 µM): 3%
viability, T/C (second compound 0.1 µM, first compound 3 µM): 2.01%
viability, T/C (second compound 0.316 µM, first compound 0.00949 µM): 14.4%
viability, T/C (second compound 0.316 µM, first compound 0.03 µM): 13.7%
viability, T/C (second compound 0.316 µM, first compound 0.0949 µM): 1.91%
viability, T/C (second compound 0.316 µM, first compound 0.3 µM): 2.83%
viability, T/C (second compound 0.316 µM, first compound 0.949 µM): 3.36%
viability, T/C (second compound 0.316 µM, first compound 3 µM): 2.48%
viability, T/C (second compound 1 µM, first compound 0.00949 µM): 13.9%
viability, T/C (second compound 1 µM, first compound 0.03 µM): 9.5%
viability, T/C (second compound 1 µM, first compound 0.0949 µM): 2.29%
viability, T/C (second compound 1 µM, first compound 0.3 µM): 4.08%
viability, T/C (second compound 1 µM, first compound 0.949 µM): 4.05%
viability, T/C (second compound 1 µM, first compound 3 µM): 3.25%

Cn1ncnc1[C@H]1c2n[nH]c(=O)c3cc(F)cc(c23)N[C@@H]1c1ccc(F)cc1 + CCN1CCN(Cc2ccc(Nc3ncc(F)c(-c4cc(F)c5nc(C)n(C(C)C)c5c4)n3)nc2)CC1
IC50 (second compound 0.01 µM): 54.1 nM
IC50 (second compound 0.0316 µM): < 0.316 nM
IC50 (second compound 0.1 µM): < 0.316 nM
IC50 (second compound 0.316 µM): < 0.316 nM
IC50 (second compound 1 µM): < 0.316 nM
viability, T/C (second compound 0.01 µM, first compound 0.000316 µM): 70.5%
viability, T/C (second compound 0.01 µM, first compound 0.001 µM): 67.8%
viability, T/C (second compound 0.01 µM, first compound 0.00316 µM): 73.1%
viability, T/C (second compound 0.01 µM, first compound 0.01 µM): 64%
viability, T/C (second compound 0.01 µM, first compound 0.0316 µM): 55.2%
viability, T/C (second compound 0.01 µM, first compound 0.1 µM): 44.5%
viability, T/C (second compound 0.0316 µM, first compound 0.000316 µM): 38.7%
viability, T/C (second compound 0.0316 µM, first compound 0.001 µM): 50.5%
viability, T/C (second compound 0.0316 µM, first compound 0.00316 µM): 52.7%
viability, T/C (second compound 0.0316 µM, first compound 0.01 µM): 36%
viability, T/C (second compound 0.0316 µM, first compound 0.0316 µM): 36.5%
viability, T/C (second compound 0.0316 µM, first compound 0.1 µM): 25.2%
viability, T/C (second compound 0.1 µM, first compound 0.000316 µM): 28.1%
viability, T/C (second compound 0.1 µM, first compound 0.001 µM): 22.9%
viability, T/C (second compound 0.1 µM, first compound 0.00316 µM): 23.9%
viability, T/C (second compound 0.1 µM, first compound 0.01 µM): 23.2%
viability, T/C (second compound 0.1 µM, first compound 0.0316 µM): 17.5%
viability, T/C (second compound 0.1 µM, first compound 0.1 µM): 16.4%
viability, T/C (second compound 0.316 µM, first compound 0.000316 µM): 14.6%
viability, T/C (second compound 0.316 µM, first compound 0.001 µM): 19.8%
viability, T/C (second compound 0.316 µM, first compound 0.00316 µM): 16.2%
viability, T/C (second compound 0.316 µM, first compound 0.01 µM): 17.8%
viability, T/C (second compound 0.316 µM, first compound 0.0316 µM): 16.9%
viability, T/C (second compound 0.316 µM, first compound 0.1 µM): 13.1%
viability, T/C (second compound 1 µM, first compound 0.000316 µM): 16.2%
viability, T/C (second compound 1 µM, first compound 0.001 µM): 17.6%
viability, T/C (second compound 1 µM, first compound 0.00316 µM): 16.2%
viability, T/C (second compound 1 µM, first compound 0.01 µM): 13%
viability, T/C (second compound 1 µM, first compound 0.0316 µM): 14.9%
viability, T/C (second compound 1 µM, first compound 0.1 µM): 12.8%

Reference: PubChem BioAssay AID2060340 (Molecular Pharmacology Branch, DTP, NCI, 2025)
